# pEC50, pIC50: −log10 of the molar value. “Also recorded” adds a separate entry of the source. Like-named read-outs stand apart in the source and are kept apart here.
# Legend:
# [1] = test system: TCF/LEF reporter in HEK293-pBARL cells; conditions: read-out: TCF/LEF EC50
# Procedure: (§1) HEK293-pBARL cells were derived from HEK293 cells and they stably expressed a firefly-luciferase reporter gene driven by a promoter containing 12 copies of TCF/LEF binding sequences. These cells were maintained in DMEM and supplemented with 10% FBS and 1% penicillin-streptomycin (Invitrogen). Reporter gene assays were conducted in anti-biotic free media. […] These cells also contained a renilla-luciferase reporter gene driven by the ubiquitous EF1α promoter as a control. HEK293-pBarl reporter cell lines were seeded into 384-well culture plates (Corning) at 6000 cells/well. 24 hours after plating, cells were treated overnight with relevant compounds and assayed using DualGlo assay kit (Promega). Luminescent intensities were read by EnVision (PerkinElmer, Waltham, Mass.). Firefly luciferase intensity is normalized by renilla luciferase intensity.
# (§2) Cells were cultured in 384 well plates to appropriate density (40 μl total plating volume). 24 hours after plating, cells were treated with 100 nl compounds. 24 hours after incubation with compounds (48 hours after plating), assay reagents were prepared by mixing Luciferase Assay solution with Luciferase substrate and Stop & Glo solution to Stop & Glo substrate (extra reagents can be aliquoted and frozen for future use and are stable for at least one freeze/thaw cycle). […] The plate was spun down and 10 minutes were allowed for signal stabilization. Luciferase signal on the Perkin Elmer EnVision using the following parameters: Distance between plate & detector (mm)=0.2; Measurement time(s)=0.1; Glow (CT2) correction factor=0. Once the initial data is secure, a volume of Stop & Glo was added equal to each well equal to the volume of Luciferase reagent added above (If 10 μl Luciferase Reagent was added, 10 μl Stop & Glo was also added). The plate was spun down and 10 minutes were allowed for signal stabilization. The plate was read on the EnVision using the same parameters detailed above.
# [2] = test system: phospho-Tau (Ser199) in SH-SY5Y cells; experiment: Tau phosphorylation assay (phospho-Tau Ser199 ELISA); assay type: cell-based, human; conditions: read-out: p-Tau Inhibition ELISA EC50 SH-SY5Y
# Procedure: Tau Phosphorylation and Total Tau Assay
# SH-SY5Y cells were maintained in DMEM supplemented with 10% heat-inactivated FBS and 1% penicillin-streptomycin (Invitrogen) unless otherwise stated. ELISA kits for phospho-Tau (Ser199) and total Tau detection were purchased from Invitrogen (KHB0041, and KHB7041 respectively). Briefly, SH-SY5Y cells were seeded at 50,000 cells/200 μL/well in 96 well plates and after overnight incubation, treated with various doses of chemical compounds at 0.2 μL/well. The next day cells were washed with PBS twice before being lysed in 100 μL Lysis buffer/well. 50 μL of cell lysate of each sample was transferred to an ELISA vial coated with the capture antibody, and the mixture was incubated at room temperature for 2 hours, before the supernatant was aspired, and each vial washed four times. 100 μL of detection antibody was then added to each well, incubated for 1 hour, and then washed four times. […] Data were scaled using the positive and neutral controls and fitted for IC50.
# A standard protocol using an immunoassay kit to quantify total Tau protein and phospho-Tau (Ser199) protein in SH-SY5Y human neuroblastoma cells was employed. Human Tau (Total) ELISA kit (#KHB0041) and human phosphor-Tau (Ser199) ELISA kit were purchased from Invitrogen (#KHB7041)
# 50,000 cells were seeded in 200 μl per well in cell culture media (250,000 cells/ml). Cells were incubated overnight @37° C. Cells were induced with appropriate doses of inhibitors and incubated for approximately 24 hrs @37° C. Cell lysates were harvested by washing cells once with cold PBS and adding 100 μl cold lysis buffer and pipette up and down vigorously. Lysate was transferred to 96 well PCR plate and centrifuged at 4,000 rpm for 20 minutes at 4° C.
# Well strips were warmed and inserted into the frame. 100μ of standard diluent buffer were loaded into ZERO wells, and 100 ul of each standard concentrations (both total Tau and pTau) were loaded into wells in duplicate. Samples were loaded to each well that would be analyzed for total Tau, 85 μl standard diluent buffer and 15 μl cell lysate were added. To each well that will be analyzed for pTau (Ser199) 50 μl standard diluent buffer+50 μl cell lysate were added. Plates were tapped gently on the side to mix. Certain wells were left empty for chromogen blank. Plates were covered and incubated for 2 hours at room temperature. Wells were aspirated 4 times (400 μl diluted wash buffer, left for 30 seconds, aspirated all wells; alternatively used automated plate washer and programmed in a 30 second hold between each cycle). 100 μl of detection antibody solution were added to each well except chromogen blanks. Anti-total Tau was added to wells being analyzed for total Tau, anti-pTau (Ser199) was added to wells being analyzed for pTau (Ser199), and plates were tapped gently on the side to mix. Plates were covered and incubated for 1 hour at room temperature, then wells were aspirated and washed 4 times as described above. 100 μl of anti-rabbit IgG HRP working solution (prepared ahead) were added to each well except chromogen blanks, and plates were covered and incubated for 30 minutes at room temperature, then wells were aspirated and washed 4 times as described above. 100 μl of stabilized chromogen were added to each well (the liquid turned blue). Plates were incubates for 30 minutes at room temperature in the dark, then 100 μl of stop solution were added to each well, and plates were tapped gently on the side to mix. Absorbance of each well was read at 450 nm (within 2 hours of adding stop solution).
# [3] = test system: TCF/LEF reporter in HEK293-pBARL cells; experiment: cells; conditions: Homo sapiens
# Procedure: as §1, §2
# AML cell lines = experiment: AML cell morphology, May-Grunwald Giemsa staining; assay type: cell-based; conditions: three days after treatment, vs vehicle
# Procedure: Compound 70 Induces Morphological Changes in AML Cell Lines Consistent with Myeloid Differentiation
# On day three post-chemical treatment, cytospin preparations were performed. Changes in cellular morphology were evaluated by May-Grunwald Giemsa staining (Sigma Aldrich). Images were acquired by light microscopy at 400× magnification.
# [4] = test system: amphetamine-induced hyperactivity; experiment: Amphetamine-induced hyperactivity (AIH) in vivo; conditions: mice, systemic i.p., vs vehicle
# [5] = Pharmacokinetics and brain distribution in mice; assay type: in vivo; conditions: single i.p. dose 30 mg/kg, male C57BL/6 mice
# HL-60 and U937 cells = experiment: GE-HTS 32-gene myeloid differentiation signature; assay type: cell-based; conditions: three days treatment
# Procedure: HL-60 and U937 cells were treated for three days with compound 70 or vehicle. A 32-gene differentiation signature was quantified by the LMA/bead-based approach and a Weighted Summed Score (Differentiation Score) calculated for all genes was determined for each condition. Error bars denote the mean±SD of 8 replicates and statistical significance of the differences between these differentiation scores was derived using a one-way ANOVA with a Bonferroni correction.
# Compound 70 Induces a Gene Expression Signature in AML Cell Lines Consistent with Myeloid Differentiation […]
# GSK3α = GSK3α (Homo sapiens (Human), UniProt P49840)
# Procedure: GSK3β Microfluidic Mobility-Shift Assay
# Reactions were terminated by the addition of 10 mM EDTA. Substrate and product were separated electrophoretically and fluorescence intensity of the substrate and product was determined by Labchip EZ Reader II (Caliper Life Sciences, MA). The kinase activity was measured as percent conversion. The reactions were performed in duplicate for each sample. […] The results were analyzed by Genedata Assay Analyzer. The percent inhibition was plotted against the compound concentration and the IC50 value was determined from the logistic dose-response curve fitting.
# [6] = test system: β-catenin nuclear translocation in U2-OS cells; experiment: β-Catenin nuclear localization assay; assay type: cell-based; conditions: read-out: beta-Catenin translocation EC50
# Procedure: β-Catenin Nuclear Localization Assay
# U2-OS cells stably expressing two complimentary β-galactosidase fragments (one part on β-Catenin and the other constitutively expressed in the cell nucleus) were maintained in DMEM F12 supplemented with 10% FBS. When β-catenin translocates to the nucleus, the complimentary fragments form a complete β-galactosidase, the amount of which is then quantified by β-galactosidase activity (DiscoveRx). Cells were seeded in a 384-well CulturPlate (Perkin Elmer, Boston, Mass.) with 10,000 per well in 20 μL DMEM F12 containing 10% FCS, 100 U/ml penicillin and 100 μg/mL streptomycin. After overnight incubation at 37° C., cells were stimulated with 100 nL test compound/well and then returned to the incubator for 6 h. Cells were disrupted using 12 μL substrate-containing lysis buffer from the PathHunter Detection Kit in the formulation specified by the supplier (DiscoveRx). Plates were incubated in the dark for 1 h at room temperature before measurement of β-galactosidase activity (luminescence) on an EnVision plate reader (PerkinElmer, Waltham, Mass.).
# CDK5/p25 = CDK5/p25 (Homo sapiens (Human), UniProt Q00535)
# Procedure: Biochemical characterization of these synthesized compounds were assayed against GSK3β and CDK5/p25, with CDK5/p25 serving as a counter target of GSK3β selectivity. […] The effects of these compounds on survival of SH-SY5Y pathophysiology cells were also monitored.
# [7] = mouse plasma, 5 hours
# [8] = mouse, microsomes, 1 h
# [9] = HEK293, read-out: TCF/LEF EC50 (μM)
# Chain of CDK5/p25 (Q00535 whole entry, species assumed): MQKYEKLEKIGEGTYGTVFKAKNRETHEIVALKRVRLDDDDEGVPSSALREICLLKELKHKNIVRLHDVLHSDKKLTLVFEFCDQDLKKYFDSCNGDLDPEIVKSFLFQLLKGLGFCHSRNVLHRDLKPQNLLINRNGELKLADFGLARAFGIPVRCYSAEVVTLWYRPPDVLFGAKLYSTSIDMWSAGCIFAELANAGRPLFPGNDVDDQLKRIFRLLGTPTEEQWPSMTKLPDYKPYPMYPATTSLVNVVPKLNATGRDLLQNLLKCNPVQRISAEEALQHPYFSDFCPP
# Chain of CDK5/p25 (Q15078 99-307 partner, species assumed): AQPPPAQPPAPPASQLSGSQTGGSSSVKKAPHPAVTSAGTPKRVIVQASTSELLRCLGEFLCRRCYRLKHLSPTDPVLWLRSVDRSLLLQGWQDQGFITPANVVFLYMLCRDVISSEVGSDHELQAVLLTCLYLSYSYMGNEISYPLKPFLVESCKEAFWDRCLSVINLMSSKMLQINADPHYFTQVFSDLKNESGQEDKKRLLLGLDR
# Chain of GSK3α (P49840 whole entry): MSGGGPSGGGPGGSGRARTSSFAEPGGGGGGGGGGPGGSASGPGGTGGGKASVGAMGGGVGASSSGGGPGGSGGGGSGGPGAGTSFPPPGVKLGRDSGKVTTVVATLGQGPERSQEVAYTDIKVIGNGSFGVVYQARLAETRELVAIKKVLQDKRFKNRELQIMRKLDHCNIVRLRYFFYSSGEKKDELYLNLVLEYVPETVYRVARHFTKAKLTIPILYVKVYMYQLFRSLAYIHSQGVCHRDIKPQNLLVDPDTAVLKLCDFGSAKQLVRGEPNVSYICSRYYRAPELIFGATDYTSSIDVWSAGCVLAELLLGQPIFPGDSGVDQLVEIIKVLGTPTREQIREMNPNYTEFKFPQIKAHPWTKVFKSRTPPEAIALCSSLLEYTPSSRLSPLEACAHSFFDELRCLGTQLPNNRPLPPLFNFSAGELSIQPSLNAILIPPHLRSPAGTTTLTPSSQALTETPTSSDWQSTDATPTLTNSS
structure (smiles),measurement,setting,value
CC1(C)CC(=O)C2=C(C1)Nc1n[nH]c(C(F)(F)F)c1C2c1cc(F)ccc1C(F)(F)F (stereo not shown) [Compound 64],pEC50,[1],< 4.60
CC1(C)CC(=O)C2=C(C1)Nc1n[nH]c(C(F)(F)F)c1C2c1cc(F)ccc1F (stereo not shown) [Compound 60],pEC50,[1],< 4.60
CC1(C)CC(=O)C2=C(C1)Nc1n[nH]c(C(F)(F)F)c1C2c1ccccc1F (stereo not shown) [Compound 58],pEC50,[1],< 4.60
"CC1(C)CC(=O)C2=C(C1)Nc1n[nH]c(C(F)(F)F)c1C2(C)c1ccccc1 (single isomer, unassigned) [Compound 70, 4,7,7-trimethyl-4-phenyl-3-(trifluoromethyl)-6,7,8,9-tetrahydro-2H-pyrazolo[3,4-b]quinolin-5(4H)-one]",pEC50,"[2]; Homo sapiens, SH-SY5Y",6.09
same,EC50,[3]; [9],1.86 µM
same,morphological evidence of AML differentiation,AML cell lines,induces morphological evidence of AML (acute myeloid leukemia) differentiation
same,morphological evidence of AML differentiation,AML cell lines; listed as compound 70,demonstrated cellular differentiation
same,"effect on amphetamine-induced hyperactivity, intraperitoneal injection",[4],attenuate amphetamine-induced hyperactivity
same,pharmacokinetic profile (systemic exposure and brain distribution) compared to CHIR99021,[5],improved pharmacokinetic profile
same,AML differentiation by GE-HTS signature,HL-60 and U937 cells,induced a gene expression signature in AML cell lines consistent with myeloid differentiation; also recorded: induces AML (acute myeloid leukemia) differentiation by GE-HTS signature
"Cc1[nH]nc2c1C(c1cccc3nonc13)C1=C(CC(C)(C)CC1=O)N2 (stereo not shown) [Compound 41, 4-(benzo[c][1,2,5]oxadiazol-4-yl)-3,7,7-trimethyl-6,7,8,9-tetrahydro-2H-pyrazolo[3,4-b]quinolin-5(4H)-one]",pIC50,GSK3α,> 7.00
same,pEC50,"[2]; Homo sapiens, SH-SY5Y",5.64
same,EC50,[3]; [9],6.7 µM
same,pEC50,"[6]; Homo sapiens, U2OS",4.93
same,ADP Glo Assay GSK3β vs CDK5 fold selectivity,CDK5/p25,51X
CCc1[nH]nc2c1C(c1ccccc1OC)C1=C(CC(C)(C)CC1=O)N2 (stereo not shown) [Compound 48],ADP Glo Assay GSK3β vs CDK5 fold selectivity,CDK5/p25,35X
COc1ccccc1C1C2=C(CCCC2=O)Nc2n[nH]c(C)c21 (stereo not shown) [Compound 46],pEC50,[6],< 4.30
same,pEC50,[1],< 4.60
same,ADP Glo Assay GSK3β vs CDK5 fold selectivity,CDK5/p25,6X
CC1(C)CC(=O)C2=C(C1)Nc1n[nH]c(C(F)(F)F)c1C2c1ccc(F)cc1C(F)(F)F (stereo not shown) [Compound 65],pEC50,[1],< 4.60
same,ADP Glo Assay GSK3β vs CDK5 fold selectivity,CDK5/p25,130X
"Cc1[nH]nc2c1C(C)(c1cccc(C#N)c1)C1=C(CC(C)(C)CC1=O)N2 (racemic) [Compound 95, 3-(1,6,6,9-tetramethyl-8-oxo-4,5,6,7,8,9-hexahydro-2H-pyrazolo[3,4-b]quinolin-9-yl)benzonitrile]",Plasma stability % remaining,[7],99.0%
same,pEC50,"[2]; Homo sapiens, SH-SY5Y",5.20
Cc1[nH]nc2c1C(c1ccccc1)(C(F)(F)F)C1=C(CC(C)(C)CC1=O)N2 (stereo not shown) [Compound 83],Microsomal stability 60 min,[8],51.5%
CC1(C)CC(=O)C2=C(C1)Nc1n[nH]c(C(F)(F)F)c1C2c1cc(F)ccc1OC(F)(F)F (stereo not shown) [Compound 61],pEC50,[1],< 4.60
CC1(C)CC(=O)C2=C(C1)Nc1n[nH]cc1[C@]2(C)c1ccccc1 (racemic) [Compound 108],Plasma stability % remaining,[7],96.6%
COc1ccccc1C1C2=C(CC(C)(C)CC2=O)Nc2n[nH]c(C(C)C)c21 (stereo not shown) [Compound 49],pEC50,[6],< 4.30
same,pEC50,[1],< 4.60
same,ADP Glo Assay GSK3β vs CDK5 fold selectivity,CDK5/p25,14X
COc1ccccc1C1C2=C(CC(C)(C)CC2=O)Nc2n[nH]c(C(C)(C)C)c21 (stereo not shown) [Compound 50],pEC50,[6],< 4.30
same,pEC50,[1],< 4.60
Cc1[nH]nc2c1C(c1ccccc1Br)C1=C(CC(C)(C)CC1=O)N2 (stereo not shown) [Compound 16],ADP Glo Assay GSK3β vs CDK5 fold selectivity,CDK5/p25,14X
"Cc1[nH]nc2c1C(c1ccccc1C(F)(F)F)C1=C(CC(C)(C)CC1=O)N2 (racemic) [Compound 27, 3,7,7-trimethyl-4-(2-(trifluoromethyl)phenyl)-6,7,8,9-tetrahydro-2H-pyrazolo[3,4-b]quinolin-5(4H)-one]",pEC50,"[2]; Homo sapiens, SH-SY5Y",5.37
same,EC50,[3]; [9],9.59 µM
same,pEC50,"[6]; Homo sapiens, U2OS",4.92
same,ADP Glo Assay GSK3β vs CDK5 fold selectivity,CDK5/p25,34X
COc1ccccc1C1C2=C(CC3(CCCCC3)CC2=O)Nc2n[nH]c(C)c21 (stereo not shown) [Compound 56],pEC50,[6],< 4.30
same,pEC50,[1],< 4.60
"COc1ccccc1[C@H]1C2=C(CC(C)(C)CC2=O)Nc2n[nH]c(C(F)(F)F)c21 [Compound 55, (S)-4-(2-methoxyphenyl)-7,7-dimethyl-3-(trifluoromethyl)-6,7,8,9-tetrahydro-2H-pyrazolo[3,4-b]quinolin-5(4H)-one]",pEC50,[2]; Homo sapiens,< 4.52
same,EC50,"[3]; HEK293, read-out: TCF/LEF EC50 (μM), HEK293 reporter cells",> 25 µM
same,pEC50,"[6]; Homo sapiens, U2OS",< 4.30
COc1ccccc1C1C2=C(CC(C)(C)CC2=O)Nc2n[nH]c(-c3ccccc3)c21 (stereo not shown) [Compound 51],pEC50,[6],< 4.30
same,pEC50,[1],< 4.60
COc1ccccc1C1C2=C(CC(C)(C)CC2=O)Nc2n[nH]cc21 (stereo not shown) [Compound 47],ADP Glo Assay GSK3β vs CDK5 fold selectivity,CDK5/p25,34X
Cc1[nH]nc2c1C(C1CC1)C1=C(CC(C)(C)CC1=O)N2 (stereo not shown) [Compound 43],pEC50,[2],< 4.52
same,pEC50,[6],< 4.30
same,pEC50,[1],< 4.60
Cc1[nH]nc2c1C(C)C1=C(CC(C)(C)CC1=O)N2 (stereo not shown) [Compound 42],pEC50,[6],< 4.30
same,pEC50,[1],< 4.60
same,ADP Glo Assay GSK3β vs CDK5 fold selectivity,CDK5/p25,23X
CC1(C)CC(=O)C2=C(C1)Nc1n[nH]c(C3CC3)c1C2(C)c1ccccc1 (racemic) [Compound 113],Plasma stability % remaining,[7],90.5%
same,pEC50,"[2]; Homo sapiens, SH-SY5Y",5.32
Cc1[nH]nc2c1C(C1CCCCC1)C1=C(CC(C)(C)CC1=O)N2 (stereo not shown) [Compound 44],pEC50,[6],< 4.30
same,pEC50,[1],< 4.60
"CC1(C)CC(=O)C2=C(C1)Nc1n[nH]c(C(F)(F)F)c1C2(C)c1ccccc1 (racemic) [Compound 68, 4,7,7-trimethyl-4-phenyl-3-(trifluoromethyl)-6,7,8,9-tetrahydro-2H-pyrazolo[3,4-b]quinolin-5(4H)-one]",EC50,[3]; [9],7.77 µM
same,pEC50,"[6]; Homo sapiens, U2OS",4.97
same,ADP Glo Assay GSK3β vs CDK5 fold selectivity,CDK5/p25,244X
"Cc1ccccc1C1C2=C(CC(C)(C)CC2=O)Nc2n[nH]c(C)c21 (stereo not shown) [Compound 17, 3,7,7-trimethyl-4-(o-tolyl)-6,7,8,9-tetrahydro-2H-pyrazolo[3,4-b]quinolin-5(4H)-one]",pIC50,GSK3α,> 7.00
same,EC50,[3]; [9],> 25 µM
same,pEC50,"[6]; Homo sapiens, U2OS",< 4.30
same,ADP Glo Assay GSK3β vs CDK5 fold selectivity,CDK5/p25,14X
"Cc1[nH]nc2c1[C@@H](c1ccccc1C(F)(F)F)C1=C(CC(C)(C)CC1=O)N2 (stereo in doubt) [Compound 29, 3,7,7-trimethyl-4-(2-(trifluoromethyl)phenyl)-6,7,8,9-tetrahydro-2H-pyrazolo[3,4-b]quinolin-5(4H)-one]",pEC50,"[2]; Homo sapiens, SH-SY5Y",< 4.52
same,EC50,[3]; [9],> 25 µM
same,pEC50,"[6]; Homo sapiens, U2OS",< 4.30
"Cc1[nH]nc2c1C(c1cccc(C(F)(F)F)c1)C1=C(CC(C)(C)CC1=O)N2 (stereo not shown) [Compound 30, 3,7,7-trimethyl-4-(3-(trifluoromethyl)phenyl)-6,7,8,9-tetrahydro-2H-pyrazolo[3,4-b]quinolin-5(4H)-one]",pEC50,"[2]; Homo sapiens, SH-SY5Y",5.33
same,EC50,[3]; [9],7.67 µM
same,pEC50,"[6]; Homo sapiens, U2OS",4.95
COc1ccccc1C1C2=C(CCC(C)(C)C2=O)Nc2n[nH]c(C)c21 (stereo not shown) [Compound 45],pEC50,[6],< 4.30
same,pEC50,[1],< 4.60
same,ADP Glo Assay GSK3β vs CDK5 fold selectivity,CDK5/p25,20X
"Cc1[nH]nc2c1C(c1cccc(C#N)c1)C1=C(CC(C)(C)CC1=O)N2 (stereo not shown) [Compound 33, 3-(3,7,7-trimethyl-5-oxo-4,5,6,7,8,9-hexahydro-2H-pyrazolo[3,4-b]quinolin-4-yl)benzonitrile]",pEC50,"[2]; Homo sapiens, SH-SY5Y",5.60
same,EC50,[3]; [9],5.16 µM
same,pEC50,"[6]; Homo sapiens, U2OS",4.92
